Key:
[1] = test system: G-protein coupled estrogen receptor 1 (GPER1); experiment: cAMP production in GPER1+ HEK293T cells; format: cell-based
ERα and SP-1 = experiment: Proximity ligation assay (PLA) ERα / SP-1; format: cell-based, human (hERα) in HEK293T cells; details: 1 μM; HEK293T overexpressing hGLP-1R and ERα
GLP-1R+ HEK293T cells = experiment: estrone-3-sulfate ELISA in cell lysate; format: cell-based; details: 1 μM, 2 h
ERα = biological target: T1, ERα (Homo sapiens, UniProt P03372); experiment: Estrogen response element (ERE) luciferase reporter; format: cell-based, human (hERα) in HEK293T cells; details: bafilomycinA1 (5 μM) or EN6 (50 μM) with E2 or E2-3-ether; 24 h
T1 sequence (P03372 1-595): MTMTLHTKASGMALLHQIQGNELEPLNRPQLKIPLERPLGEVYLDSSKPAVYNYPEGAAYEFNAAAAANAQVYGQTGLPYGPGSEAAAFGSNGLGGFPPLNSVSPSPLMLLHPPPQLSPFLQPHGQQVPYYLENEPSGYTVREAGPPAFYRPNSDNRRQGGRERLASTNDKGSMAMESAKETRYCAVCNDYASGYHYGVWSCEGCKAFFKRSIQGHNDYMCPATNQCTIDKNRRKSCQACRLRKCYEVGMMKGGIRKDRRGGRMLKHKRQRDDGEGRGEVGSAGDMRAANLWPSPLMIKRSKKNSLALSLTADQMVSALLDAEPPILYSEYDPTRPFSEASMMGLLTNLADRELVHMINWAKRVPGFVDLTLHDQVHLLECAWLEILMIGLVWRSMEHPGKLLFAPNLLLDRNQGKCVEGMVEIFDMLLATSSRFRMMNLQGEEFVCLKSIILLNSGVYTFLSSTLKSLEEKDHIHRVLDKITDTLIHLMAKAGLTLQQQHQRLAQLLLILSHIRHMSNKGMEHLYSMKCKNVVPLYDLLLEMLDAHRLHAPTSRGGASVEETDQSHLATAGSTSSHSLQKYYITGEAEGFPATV

[2] = test system: GLP-1R / Rab5+ early endosomes; experiment: GLP-1R colocalization with Rab5+ early endosomes, BRET; details: with GLP-1 (7-36)amide (1 μM)
hGLP-1R [3] = biological target: T2, hGLP-1R (Homo sapiens, UniProt P43220); experiment: Nluc-mGαs recruitment to GLP-1R-GFP, BRET; format: cell-based, human (hGLP-1R) in HEK293T cells
T2 sequence (P43220 24-463): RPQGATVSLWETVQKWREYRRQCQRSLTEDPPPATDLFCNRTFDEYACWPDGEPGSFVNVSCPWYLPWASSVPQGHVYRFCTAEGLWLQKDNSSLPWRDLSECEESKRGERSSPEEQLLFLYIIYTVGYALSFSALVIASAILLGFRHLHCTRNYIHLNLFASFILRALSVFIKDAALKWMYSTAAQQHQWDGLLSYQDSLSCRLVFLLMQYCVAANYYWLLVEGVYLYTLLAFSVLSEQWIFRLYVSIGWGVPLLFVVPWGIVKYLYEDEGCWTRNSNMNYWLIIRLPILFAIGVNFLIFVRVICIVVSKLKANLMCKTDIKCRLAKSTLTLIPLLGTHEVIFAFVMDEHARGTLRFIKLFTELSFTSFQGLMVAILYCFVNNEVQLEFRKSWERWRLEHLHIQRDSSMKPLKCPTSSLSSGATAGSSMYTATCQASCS

hGLP-1R [4] = biological target: T2, hGLP-1R; experiment: cAMP production, CAMYEL BRET; format: cell-based, human (hGLP-1R) in HEK293T cells
hGLP-1R [5] = biological target: T2, hGLP-1R; experiment: Nluc-mGαq recruitment to GLP-1R-GFP, BRET; format: cell-based, human (hGLP-1R) in HEK293T cells
hGLP-1R [6] = biological target: T2, hGLP-1R; experiment: GLP-1R-Rluc8 internalization away from GFP-CAAX, BRET; format: cell-based, human (hGLP-1R) in HEK293T cells
hGLP-1R [7] = biological target: T2, hGLP-1R; experiment: β-arrestin-2-Rluc8 recruitment to GLP-1R-GFP, BRET; format: cell-based, human (hGLP-1R) in HEK293T cells
hGLP-1R [8] = biological target: T2, hGLP-1R; experiment: Nluc-mGαs recruitment to GLP-1R, BRET, MIN6; format: cell-based, human (hGLP-1R) in mouse MIN6 cells
hGLP-1R [9] = biological target: T2, hGLP-1R; experiment: cAMP production, BRET, MIN6; format: cell-based, human (hGLP-1R) in mouse MIN6 cells
hGLP-1R [10] = biological target: T2, hGLP-1R; experiment: Nluc-mGαq recruitment to GLP-1R, BRET, MIN6; format: cell-based, human (hGLP-1R) in mouse MIN6 cells
hGLP-1R [11] = biological target: T2, hGLP-1R; experiment: GLP-1R-Rluc8 internalization, BRET, MIN6; format: cell-based, human (hGLP-1R) in mouse MIN6 cells
hGLP-1R [12] = biological target: T2, hGLP-1R; experiment: β-arrestin-2-Rluc8 recruitment, BRET, MIN6; format: cell-based, human (hGLP-1R) in mouse MIN6 cells
hGLP-1R [13] = biological target: T2, hGLP-1R; experiment: Nluc-mGαs recruitment to GLP-1R, BRET, CLU177; format: cell-based, human (hGLP-1R) in mouse CLU177 cells
hGLP-1R [14] = biological target: T2, hGLP-1R; experiment: cAMP production, BRET, CLU177; format: cell-based, human (hGLP-1R) in mouse CLU177 cells
hGLP-1R [15] = biological target: T2, hGLP-1R; experiment: GLP-1R-Rluc8 internalization, BRET, CLU177; format: cell-based, human (hGLP-1R) in mouse CLU177 cells
hGLP-1R [16] = biological target: T2, hGLP-1R; experiment: β-arrestin-2-Rluc8 recruitment, BRET, CLU177; format: cell-based, human (hGLP-1R) in mouse CLU177 cells

SMILES: C[C@]12CC[C@@H]3c4ccc(O)cc4CC[C@H]3[C@@H]1CC[C@@H]2O [E2, 17β-estradiol]
- cAMP production via GPER1 [1]: did not observe E2-or G1-driven cAMP production
- PLA: proximal localization of ERα and SP-1 (ERα and SP-1): significantly increase the proximal localization of ERα and the nucleus-localized transcription factor specificity protein-1 (SP-1) relative to GLP-1 (7-36)amide

SMILES: C[C@]12CC[C@@H]3c4ccc(OCC(=O)O)cc4CC[C@H]3[C@@H]1CC[C@@H]2O [E2-3-ether, estradiol 3-carboxymethyl ether]
- estrone-3-sulfate levels (GLP-1R+ HEK293T cells): significantly increased estrone-3-sulfate levels

SMILES: C=CC(=O)Nc1cc(NC(=O)c2cnn(-c3ccccc3F)c2)ccc1F [EN6]
- off-target effect on stimulated ERα activation (ERα): did not have off-target effects on stimulated ERα activation by E2 or E2-3-ether
- endosomal trafficking dynamics on EN6 treatment ([2]; 50 μM): without altering endosomal trafficking dynamics

SMILES: CC(=O)c1ccc2c(c1)C1C=CCC1C(c1cc3c(cc1Br)OCO3)N2 (centres unmarked) [G1]
- cAMP production via GPER1 [1]: did not observe E2-or G1-driven cAMP production

SMILES: CC[C@H](C)[C@H](NC(=O)[C@H](Cc1ccccc1)NC(=O)[C@H](CCC(=O)O)NC(=O)[C@H](CCCCN)NC(=O)[C@H](C)NC(=O)[C@H](C)NC(=O)[C@H](CCC(N)=O)NC(=O)[C@H](CCC(=O)O)NC(=O)[C@H](CCC(=O)O)NC(=O)[C@H](CC(C)C)NC(=O)[C@H](Cc1ccc(O)cc1)NC(=O)[C@H](CO)NC(=O)[C@H](CO)NC(=O)[C@@H](NC(=O)[C@H](CC(=O)O)NC(=O)[C@H](CO)NC(=O)[C@@H](NC(=O)[C@H](Cc1ccccc1)NC(=O)[C@@H](NC(=O)CNC(=O)[C@H](CCC(=O)O)NC(=O)C(C)(C)NC(=O)[C@@H](N)Cc1c[nH]cn1)[C@@H](C)O)[C@@H](C)O)C(C)C)C(=O)N[C@@H](C)C(=O)N[C@@H](Cc1c[nH]c2ccccc12)C(=O)N[C@@H](CC(C)C)C(=O)N[C@H](C(=O)N[C@@H](CCCCN)C(=O)NCC(=O)NCC(=O)N1CCC[C@H]1C(=O)N[C@@H](CO)C(=O)N[C@@H](CO)C(=O)NCC(=O)N[C@@H](C)C(=O)N1CCC[C@H]1C(=O)N1CCC[C@H]1C(=O)N1CCC[C@H]1C(=O)N[C@@H](CO)C(=O)N[C@@H](CCCCNC(=O)COc1ccc2c(c1)CC[C@@H]1[C@@H]2CC[C@]2(C)[C@@H](O)CC[C@@H]12)C(N)=O)C(C)C [GLP-1-CEX/E2]
- EC50 (hGLP-1R [3]): 44.6 nM
- Emax (hGLP-1R [3]; HEK-293T): 94.2 ± 5.2%
- EC50 (hGLP-1R [4]): 16.8 nM
- Emax (hGLP-1R [4]; HEK-293T): 111 ± 5.3%
- EC50 (hGLP-1R [5]): 47.8 nM
- Emax (hGLP-1R [5]; HEK-293T): 94 ± 9%
- EC50 (hGLP-1R [6]): 5.01 nM
- Emax (hGLP-1R [6]; HEK-293T): 90.9 ± 1.5%
- EC50 (hGLP-1R [7]): 29.5 nM
- Emax (hGLP-1R [7]; HEK-293T): 100 ± 2.6%
- EC50 (hGLP-1R [8]): 143 nM
- Emax (hGLP-1R [8]; MIN6): 95.4 ± 7.7%
- EC50 (hGLP-1R [9]): 0.963 nM
- Emax (hGLP-1R [9]; MIN6): 99.1 ± 4%
- EC50 (hGLP-1R [10]): 245 nM
- Emax (hGLP-1R [10]; MIN6): 76.7 ± 12.2%
- EC50 (hGLP-1R [11]): 158 nM
- Emax (hGLP-1R [11]; MIN6): 98.6 ± 9.3%
- EC50 (hGLP-1R [12]): 39.2 nM
- Emax (hGLP-1R [12]; MIN6): 99 ± 4.9%
- EC50 (hGLP-1R [13]): 62.2 nM
- Emax (hGLP-1R [13]): 103 ± 5.7%
- EC50 (hGLP-1R [14]): 0.0316 nM
- Emax (hGLP-1R [14]): 106 ± 6.2%
- EC50 (hGLP-1R [15]): 142 nM
- Emax (hGLP-1R [15]): 97.4 ± 14.8%
- EC50 (hGLP-1R [16]): 162 nM
- Emax (hGLP-1R [16]): 95.9 ± 4.1%

SMILES: CO/C1=C\C(C)=C\[C@@H](C)[C@@H](O)[C@@H](C)C/C(C)=C/C=C/[C@H](OC)[C@@H]([C@@H](C)[C@@H](O)[C@H](C)[C@@]2(O)C[C@@H](O)[C@H](C)[C@@H](C(C)C)O2)OC1=O [bafilomycinA1]
- GLP-1R internalization on bafilomycinA1 pre/co-treatment (hGLP-1R [6]; 5 μM, with GLP-1 (7-36)amide (1 μM)): without affecting receptor internalization
- off-target effect on stimulated ERα activation (ERα): did not have off-target effects on stimulated ERα activation by E2 or E2-3-ether
- GLP-1R retention in Rab5+ early endosomes on bafilomycinA1 pre/co-treatment ([2]; 5 μM): significantly increases GLP-1R retention in Rab5^+ early endosomes

SMILES: C=C[C@@]1(C)CC(=O)[C@]2(O)[C@@]3(C)[C@@H](O)CCC(C)(C)[C@@H]3[C@H](O)[C@H](OC(C)=O)[C@@]2(C)O1 [forskolin, reference compound]
- saturation of the cAMP sensor (hGLP-1R [4]; forskolin 50 μM, hGLP-1R+ HEK293T): Saturation of the cAMP sensor was not achieved
